Laboratory results taken from patent US9938266B2, “Selective BACE1 inhibitors” (Eli Lilly and Company, priority 2015, dated 2018).
Read-outs that look alike come from different tables or passages of the source.

How the values were obtained:
BACE1 = molecular target: T1, BACE1 (Homo sapiens, UniProt P56817); assay: SH-SY5YAPP695Wt Whole Cell Assay (Abeta ELISA); format: cell-based; conditions: SH-SY5YAPP695Wt cells, 24 hours
T1 construct: endogenous in cells; host or cells: SH-SY5Y (ATCC CRL2266) stably expressing human APP695Wt
T1 sequence (P56817 46-501): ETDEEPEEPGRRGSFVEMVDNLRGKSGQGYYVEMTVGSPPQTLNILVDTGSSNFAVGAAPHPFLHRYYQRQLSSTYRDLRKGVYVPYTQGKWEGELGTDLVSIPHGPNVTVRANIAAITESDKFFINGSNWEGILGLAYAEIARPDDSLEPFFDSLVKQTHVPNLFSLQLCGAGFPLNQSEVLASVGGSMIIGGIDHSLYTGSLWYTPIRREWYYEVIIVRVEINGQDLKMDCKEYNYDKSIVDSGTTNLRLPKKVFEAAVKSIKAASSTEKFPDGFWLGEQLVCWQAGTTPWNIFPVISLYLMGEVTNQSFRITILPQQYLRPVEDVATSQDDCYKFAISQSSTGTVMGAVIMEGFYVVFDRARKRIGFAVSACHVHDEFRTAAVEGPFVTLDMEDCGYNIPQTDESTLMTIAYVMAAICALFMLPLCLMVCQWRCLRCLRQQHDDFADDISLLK
Description: (§1) To assess BACE1 selectivity over BACE2, the test compound is evaluated in FRET-based enzymatic assays using specific substrates for BACE1 and BACE2 as described below. For in vitro enzymatic and cellular assays, the test compound is prepared in DMSO to make up a 10 mM stock solution. The stock solution is serially diluted in DMSO to obtain a ten-point dilution curve with final compound concentrations ranging from 10 μM to 0.05 nM in a 96-well round-bottom plate before conducting the in vitro enzymatic and whole cell assays.
The routine whole cell assay for the measurement of inhibition of BACE1 activity utilizes the human neuroblastoma cell line SH-SY5Y (ATCC Accession No. CRL2266) stably expressing a human APP695Wt cDNA. Cells are routinely used up to passage number 6 and then discarded.
SH-SY5YAPP695Wt cells are plated in 96 well tissue culture plates at 5.0×10^4 cells/well in 200 μL culture media (50% MEM/EBSS and Ham's F12, 1× each sodium pyruvate, non-essential amino acids and Na bicarbonate containing 10% FBS). The following day, media is removed from the cells, fresh media added then incubated at 37° C. for 24 hours in the presence/absence of test compound at the desired concentration range.
At the end of the incubation, conditioned media are analyzed for evidence of beta-secretase activity by analysis of Abeta peptides 1-40 and 1-42 by specific sandwich ELISAs. […]

human BACE1(1-460):Fc = molecular target: T2, human BACE1(1-460):Fc (Homo sapiens, UniProt P56817); assay: BACE1 FRET Assay; format: biochemical; conditions: purified recombinant huBACE1:Fc, n=6, mean±SEM
T2 construct: made in house; host or cells: HEK293 (transient, secreted into conditioned media, Protein A purified)
T2 sequence (P56817 22-460): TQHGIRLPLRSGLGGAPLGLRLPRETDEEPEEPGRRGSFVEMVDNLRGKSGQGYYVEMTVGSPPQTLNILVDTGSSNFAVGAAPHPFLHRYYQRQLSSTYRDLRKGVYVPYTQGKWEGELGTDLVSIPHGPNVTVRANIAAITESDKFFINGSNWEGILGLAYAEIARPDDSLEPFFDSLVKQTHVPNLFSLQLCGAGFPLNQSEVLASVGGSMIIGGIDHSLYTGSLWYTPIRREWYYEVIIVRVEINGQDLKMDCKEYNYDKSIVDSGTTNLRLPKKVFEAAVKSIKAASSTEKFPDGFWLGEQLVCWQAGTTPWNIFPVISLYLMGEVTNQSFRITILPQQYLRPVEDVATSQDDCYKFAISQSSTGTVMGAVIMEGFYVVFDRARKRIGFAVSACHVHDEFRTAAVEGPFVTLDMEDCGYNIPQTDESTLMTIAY
Description: as §1
Human BACE1 (accession number: AF190725) and human BACE2 (accession number: AF 204944) are cloned from total brain cDNA by RT-PCR. The nucleotide sequences corresponding to amino acid sequences #1 to 460 are inserted into the cDNA encoding human IgG1 (Fc) polypeptide (Vassar et al., Science, 286, 735-742 (1999)). […]
(§2) Conditioned media of HEK293 cell transiently transfected with huBACE1:Fc or huBACE2:Fc cDNA are collected. […] The purity of final product is assessed by electrophoresis in 4-20% Tris-Glycine SDS-PAGE. […]
Serial dilutions of the test compounds are prepared as described above. […] The RFU of the mixture at time 0 is recorded at excitation wavelength 355 nm and emission wavelength 460 nm, after brief mixing on a plate shaker. […] The RFU at the end of incubation is recorded with the same excitation and emission settings used at time 0. […]

human BACE2 (1-460):Fc = molecular target: T3, human BACE2 (1-460):Fc (Homo sapiens, UniProt Q9Y5Z0); assay: BACE2 TMEM27 FRET Assay; format: biochemical
T3 construct: made in house; host or cells: HEK293 (transient, secreted into conditioned media, Protein A purified)
T3 sequence (Q9Y5Z0 21-460): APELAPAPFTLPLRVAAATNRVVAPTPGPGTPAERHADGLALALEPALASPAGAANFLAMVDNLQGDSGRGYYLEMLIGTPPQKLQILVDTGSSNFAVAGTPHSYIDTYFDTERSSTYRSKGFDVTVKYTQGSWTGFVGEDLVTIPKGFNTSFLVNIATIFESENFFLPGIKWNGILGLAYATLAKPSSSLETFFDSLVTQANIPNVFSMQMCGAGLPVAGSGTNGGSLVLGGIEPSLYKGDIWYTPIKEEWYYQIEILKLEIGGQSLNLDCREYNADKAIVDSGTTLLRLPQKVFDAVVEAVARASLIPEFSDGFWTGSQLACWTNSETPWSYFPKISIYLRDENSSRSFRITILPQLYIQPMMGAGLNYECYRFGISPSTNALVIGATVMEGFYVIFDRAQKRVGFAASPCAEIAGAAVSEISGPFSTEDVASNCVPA
Description: as §1
Human BACE1 (accession number: AF190725) and human BACE2 (accession number: AF 204944) are cloned from total brain cDNA by RT-PCR. […]
as §2
Transmembrane protein 27 (TMEM27) (Accession Number NM_020665), also known as Collectrin) is a recently described substrate for BACE2, but not BACE1 (Esterhazy, et al, Cell Metabolism, 14, 365-377 (2011)). […] The RFU of the mixture at time 0 is recorded at excitation wavelength 430 nm and emission wavelength 535 nm. […] The RFU at the end of incubation is recorded with the same excitation and emission settings used at time 0. […]

beta-secretase = molecular target: T4, beta-secretase (Mus musculus, UniProt P56818); assay: In Vivo Inhibition of Beta-Secretase (brain Abeta 1-x, PDAPP mice); conditions: young female PDAPP mice, three hours, vs vehicle; for Abeta 1-x peptide levels reduced in brain cortex: p<0.01
T4 construct: from tissue; host or cells: brain (hippocampus, cortex) of young female PDAPP mice, in vivo
T4 sequence (P56818 46-501): as the sequence (P56817 46-501) above, with P6S, V162I, L165I, S180T, V182A, I340V, L393A, Q443H counted along it
From the text: Several animal models, including mouse, guinea pig, dog, and monkey, may be used to screen for inhibition of beta-secretase activity in vivo following compound treatment. Animals used in this invention can be wild type, transgenic, or gene knockout animals. For example, the PDAPP mouse model, prepared as described in Games et al., Nature 373, 523-527 (1995), and other non-transgenic or gene knockout animals are useful to analyze in vivo inhibition of Abeta and sAPPbeta production in the presence of inhibitory compounds. Generally, 2 month old PDAPP mice, gene knockout mice or non-transgenic animals are administered compound formulated in vehicles, such as corn oil, beta-cyclodextran, phosphate buffers, PHARMASOLVE®, or other suitable vehicles via oral, subcutaneous, intra-venous, feeding, or other route of administration. One to twenty-four hours following the administration of compound, animals are sacrificed, and brains are removed for analysis of Abeta 1-x. “Abeta 1-x” as used herein refers to the sum of Abeta species that begin with residue 1 and end with a C-terminus greater than residue 28. This detects the majority of Abeta species and is often called “total Abeta”. Total Abeta peptides (Abeta 1-x) levels are measured by a sandwich ELISA, using monoclonal 266 as a capture antibody and biotinylated 3D6 as reporting antibody. (See May, et al., Journal of Neuroscience, 31, 16507-16516 (2011)).
For acute studies, compound or appropriate vehicle is administered and animals are sacrificed at about 3 hours after dosing. Brain tissue, is obtained from selected animals and analyzed for the presence of Abeta 1-x. After chronic dosing brain tissues of older APP transgenic animals may also be analyzed for the amount of beta-amyloid plaques following compound treatment.
For Example 1, three hours following a 3, 10, and 30 mg/kg oral dose of the compound to young female PDAPP mice, Abeta 1-x peptide levels are reduced approximately 22%, 42%, and 51% in brain hippocampus and 26%, 43%, and 59% in brain cortex p<0.01, compared to vehicle-treated mice.

IC50 (BACE1; n=3, mean±SEM, read-out: IC50 SH-SY5YAPP695Wt A-beta (1-42) ELISA): 0.43 ± 0.08 nM | IC50 (BACE1; n=4, mean±SEM, read-out: IC50 SH-SY5YAPP695Wt A-beta (1-40) ELISA): 0.38 ± 0.14 nM | IC50 (human BACE1(1-460):Fc): 0.955 ± 0.093 nM | IC50 (human BACE2 (1-460):Fc; huBACE2:Fc, TMEM27 FRET substrate, n=4, mean±SEM): 87.3 ± 11.1 nM | ratio of BACE2 IC50 (TMEM27 FRET) to BACE1 IC50 (FRET) (human BACE2 (1-460):Fc; selectivity for BACE1 over BACE2): about 91 fold | Abeta 1-x peptide levels reduced in brain hippocampus (beta-secretase; 3 mg/kg oral): approximately 22% | Abeta 1-x peptide levels reduced in brain cortex (beta-secretase; 3 mg/kg oral): ~26% | Abeta 1-x peptide levels reduced in brain hippocampus (beta-secretase; 10 mg/kg oral): ~42% | Abeta 1-x peptide levels reduced in brain cortex (beta-secretase; 10 mg/kg oral): ~43% | Abeta 1-x peptide levels reduced in brain hippocampus (beta-secretase; 30 mg/kg oral): ~51% | Abeta 1-x peptide levels reduced in brain cortex (beta-secretase; 30 mg/kg oral): ~59%
Compound: NC1=N[C@@]2(c3cc(NC(=O)c4cnc(-n5cncn5)cn4)ccc3F)C[C@@H](OC3CC3)C[C@H]2CS1 [Example 1, N-[3-[(4aR,6S,7aS)-2-Amino-6-(cyclopropoxy)-4a,5,6,7-tetrahydro-4H-cyclopenta[d][1,3]thiazin-7a-yl]-4-fluoro-phenyl]-5-(1,2,4-triazol-1-yl)pyrazine-2-carboxamide]
